Like-named read-outs stand apart in the source and are kept apart here.

Data set [1] can be described thus: Example 6: NFA of saxagliptin in saxagliptin/Opadry II films with amino acids (HPLC). The class given is physicochemical. The settings on record: for % NFA (as a % of saxagliptin peak): Saxagliptin/Opadry II films, amino acid 2% w/w in dispersion, sealed vials 60° C. five days, control without amine 2.63.
The conditions of data set [2]: Saxagliptin Hydrochloride/Opadry II films, amino acid 2% w/w in dispersion, 60° C. five days; control without amine 2.73.
The nature of data set [3]: Example 4: NFA of saxagliptin in saxagliptin/Opadry II films with amine compounds (HPLC). The class given is physicochemical. The settings on record: amine 2% w/w in dispersion, sealed vials 60° C. five days, control without amine 2.63.
The format of data set [4] is physicochemical. The settings on record: Saxagliptin Hydrochloride/Opadry II films, amine 2% w/w in dispersion, 60° C. five days; control without amine 2.73.

Regarding `N=C(N)NCCC[C@H](N)C(=O)O` [Arginine, arginine], the “% NFA (as a % of saxagliptin peak)” value in data set [1] and in data set [2] was 0% each time. In addition, in data set [1] (saxagliptin and saxagliptin hydrochloride Opadry II films, HPLC), the “extraneous peaks in the chromatogram” value was “formation of extraneous unidentified peaks”.
For `OCCNCCO` [Diethanolamine, diethanolamine], the entries for the “% NFA (as a % of saxagliptin peak)” value in data set [3] and in data set [4] were 3.61% and 0.62%, respectively.
In the case of `NCCO` [Ethanolamine, ethanolamine], the “% NFA (as a % of saxagliptin peak)” value in data set [3] and in data set [4] was 0% in each case.
On to `NCC(=O)O` [Glycine, glycine], for which the “% NFA (as a % of saxagliptin peak)” value in data set [1] and in data set [2] was 0% in each case. Moreover, the “protecting saxagliptin from reaction with formyl species (rank among amino acids)” value in data set [1] (saxagliptin and saxagliptin hydrochloride Opadry II films) is given as “most potent”.
Consider `N[C@@H](Cc1c[nH]cn1)C(=O)O` [Histidine, histidine], for which the “% NFA (as a % of saxagliptin peak)” value in data set [1] was found to be 1.68%.
With `NCCCC[C@H](N)C(=O)O` [Lysine, lysine], the results for the “% NFA (as a % of saxagliptin peak)” value in data set [1] and in data set [2] were 2.84% and 2.08%, respectively.
